Source: ChEMBL document CHEMBL1201862, “PubChem BioAssay data set” (2004)
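These data come from cells grown in 96-well plates and exposed to compound for 48 hours at five concentrations. GI50: concentration for 50% inhibition of growth.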 Active and inactive are the calls of the source. No stated cut-off is given here; in the data, active = GI50 up to about 1.1 µM and inactive = higher.

What was measured:
Assay in all cases: NCI tumour cell line growth inhibition, 48 h
NCI-H23 = test system: NCI-H23
HT-29 = test system: HT-29
RPMI-8226 = test system: RPMI-8226
786-0 = test system: 786-0
SF-268 = test system: SF-268
SR = test system: SR
DLD-1 = test system: DLD-1
OVCAR-5 = test system: OVCAR-5
K562 = test system: K562
UACC-62 = test system: UACC-62
HL-60 = test system: HL-60
CAKI-1 = test system: CAKI-1
SK-OV-3 = test system: SK-OV-3
A549 = test system: A549
OVCAR-4 = test system: OVCAR-4
HCT-116 = test system: HCT-116
KM-20L2 = test system: KM-20L2
DMS-273 = test system: DMS-273
OVCAR-3 = test system: OVCAR-3
Malme-3M = test system: Malme-3M
TK-10 = test system: TK-10
SF-539 = test system: SF-539
SK-MEL-28 = test system: SK-MEL-28
M14 = test system: M14
HOP-92 = test system: HOP-92
ACHN = test system: ACHN
A498 = test system: A498
SNB-78 = test system: SNB-78
SN12C = test system: SN12C
COLO 205 = test system: COLO 205
UO-31 = test system: UO-31
MOLT-4 = test system: MOLT-4
U-251 = test system: U-251
IGROV-1 = test system: IGROV-1
SNB-19 = test system: SNB-19
OVCAR-8 = test system: OVCAR-8
HCC 2998 = test system: HCC 2998
NCI-H226 = test system: NCI-H226
SF-295 = test system: SF-295
EKVX = test system: EKVX
RXF 393 = test system: RXF 393
HOP-18 = test system: HOP-18
HCT-15 = test system: HCT-15
DMS-114 = test system: DMS-114
UACC-257 = test system: UACC-257
LOX IMVI = test system: LOX IMVI
SNB-75 = test system: SNB-75
NCI-H522 = test system: NCI-H522
RXF 631 = test system: RXF 631
HOP-62 = test system: HOP-62
SK-MEL-2 = test system: SK-MEL-2
CCRF-CEM = test system: CCRF-CEM
SK-MEL-5 = test system: SK-MEL-5
NCI-H460 = test system: NCI-H460
M19-MEL = test system: M19-MEL
LXFL 529 = test system: LXFL 529
KM12 = test system: KM12
SW-620 = test system: SW-620

COC(=O)C(/C(=N\O)C(=O)Nc1ccc(Br)cc1)c1nc2ccccc2nc1O (stereo unspecified)
GI50 (NCI-H23): > 100 µM (inactive)
GI50 (HT-29): 57.1 µM (inactive)
GI50 (RPMI-8226): 26.9 µM (inactive)
GI50 (786-0): 31 µM (inactive)
GI50 (SF-268): 39.2 µM (inactive)
GI50 (SR): 18.2 µM (inactive)
GI50 (DLD-1): 35.2 µM (inactive)
GI50 (OVCAR-5): > 100 µM (inactive)
GI50 (K562): 26.4 µM (inactive)
GI50 (UACC-62): 26.9 µM (inactive)
GI50 (HL-60): 21.8 µM (inactive)
GI50 (CAKI-1): > 100 µM (inactive)
GI50 (SK-OV-3): > 100 µM (inactive)
GI50 (A549): > 100 µM (inactive)
GI50 (OVCAR-4): 64.7 µM (inactive)
GI50 (HCT-116): 55.8 µM (inactive)
GI50 (KM-20L2): 44 µM (inactive)
GI50 (DMS-273): 31.1 µM (inactive)
GI50 (OVCAR-3): 23.1 µM (inactive)
GI50 (Malme-3M): 45.1 µM (inactive)
GI50 (TK-10): > 10 µM (inactive)
GI50 (SF-539): 24.4 µM (inactive)
GI50 (SK-MEL-28): 36.7 µM (inactive)
GI50 (M14): 58.9 µM (inactive)
GI50 (HOP-92): 35.4 µM (inactive)
GI50 (ACHN): 49.2 µM (inactive)
GI50 (A498): 61 µM (inactive)
GI50 (SNB-78): 96.6 µM (inactive)
GI50 (SN12C): 35.8 µM (inactive)
GI50 (COLO 205): 18.5 µM (inactive)
GI50 (UO-31): > 100 µM (inactive)
GI50 (MOLT-4): 26.1 µM (inactive)
GI50 (U-251): 34 µM (inactive)
GI50 (IGROV-1): 19 µM (inactive)
GI50 (SNB-19): 78.2 µM (inactive)
GI50 (OVCAR-8): > 100 µM (inactive)
GI50 (HCC 2998): 92 µM (inactive)
GI50 (NCI-H226): 29 µM (inactive)
GI50 (SF-295): > 100 µM (inactive)
GI50 (EKVX): 67.3 µM (inactive)
GI50 (RXF 393): 36.7 µM (inactive)
GI50 (HOP-18): 52.4 µM (inactive)
GI50 (HCT-15): 64.7 µM
GI50 (DMS-114): 20.9 µM (inactive)
GI50 (UACC-257): > 100 µM (inactive)
GI50 (LOX IMVI): 22.7 µM (inactive)
GI50 (SNB-75): 23.6 µM (inactive)
GI50 (NCI-H522): 17.1 µM (inactive)
GI50 (RXF 631): 46.9 µM (inactive)
GI50 (HOP-62): 28.4 µM (inactive)
GI50 (SK-MEL-2): 23 µM (inactive)
GI50 (CCRF-CEM): 25.3 µM (inactive)
GI50 (SK-MEL-5): 28.6 µM (inactive)
GI50 (NCI-H460): 89.9 µM (inactive)
GI50 (M19-MEL): 26.1 µM (inactive)
GI50 (LXFL 529): 28.6 µM (inactive)
GI50 (KM12): > 100 µM (inactive)

ClC[Si]12OCCN(CCO1)CCO2
GI50 (NCI-H23): > 100 µM (inactive)
GI50 (HT-29): > 100 µM (inactive)
GI50 (RPMI-8226): > 100 µM (inactive)
GI50 (786-0): > 100 µM (inactive)
GI50 (SF-268): > 100 µM (inactive)
GI50 (SR): > 100 µM (inactive)
GI50 (DLD-1): > 100 µM (inactive)
GI50 (OVCAR-5): > 100 µM (inactive)
GI50 (K562): > 100 µM (inactive)
GI50 (UACC-62): > 100 µM (inactive)
GI50 (HL-60): > 100 µM (inactive)
GI50 (CAKI-1): > 100 µM (inactive)
GI50 (SK-OV-3): > 100 µM (inactive)
GI50 (A549): > 100 µM (inactive)
GI50 (HCT-116): > 100 µM (inactive)
GI50 (DMS-273): > 100 µM (inactive)
GI50 (OVCAR-3): > 100 µM (inactive)
GI50 (Malme-3M): > 100 µM (inactive)
GI50 (TK-10): > 100 µM (inactive)
GI50 (SF-539): > 100 µM (inactive)
GI50 (SK-MEL-28): > 100 µM (inactive)
GI50 (HOP-92): > 100 µM (inactive)
GI50 (ACHN): > 100 µM (inactive)
GI50 (A498): > 100 µM (inactive)
GI50 (SNB-78): > 100 µM (inactive)
GI50 (SN12C): > 100 µM (inactive)
GI50 (COLO 205): > 100 µM (inactive)
GI50 (UO-31): > 100 µM (inactive)
GI50 (MOLT-4): > 100 µM (inactive)
GI50 (U-251): > 100 µM (inactive)
GI50 (IGROV-1): > 100 µM (inactive)
GI50 (SNB-19): > 100 µM (inactive)
GI50 (OVCAR-8): > 100 µM (inactive)
GI50 (HCC 2998): > 100 µM (inactive)
GI50 (NCI-H226): > 100 µM (inactive)
GI50 (SF-295): > 100 µM (inactive)
GI50 (RXF 393): > 100 µM (inactive)
GI50 (HOP-18): > 100 µM (inactive)
GI50 (DMS-114): > 100 µM (inactive)
GI50 (UACC-257): > 100 µM (inactive)
GI50 (SNB-75): > 100 µM (inactive)
GI50 (SW-620): > 100 µM (inactive)
GI50 (NCI-H522): > 100 µM (inactive)
GI50 (RXF 631): > 100 µM (inactive)
GI50 (SK-MEL-2): > 100 µM (inactive)
GI50 (CCRF-CEM): > 100 µM (inactive)
GI50 (SK-MEL-5): > 100 µM (inactive)
GI50 (NCI-H460): > 100 µM (inactive)
GI50 (LXFL 529): > 100 µM (inactive)
GI50 (KM12): > 100 µM (inactive)

CCOC(=O)Nc1ccc(S(=O)(=O)OC)cc1.CCOC(=O)Nc1ccc(S(=O)(=O)OC)cc1.Cc1cn(C2CC(O)C(CO)O2)c(=O)[nH]c1=O
GI50 (NCI-H23): > 100 µM (inactive)
GI50 (HT-29): 54.8 µM (inactive)
GI50 (RPMI-8226): 36.5 µM (inactive)
GI50 (786-0): 35.4 µM (inactive)
GI50 (SF-268): > 100 µM (inactive)
GI50 (DLD-1): 45.5 µM (inactive)
GI50 (OVCAR-5): > 100 µM (inactive)
GI50 (K562): 34.2 µM (inactive)
GI50 (UACC-62): > 100 µM (inactive)
GI50 (HL-60): 91.8 µM (inactive)
GI50 (CAKI-1): > 100 µM (inactive)
GI50 (SK-OV-3): > 100 µM (inactive)
GI50 (A549): > 100 µM (inactive)
GI50 (OVCAR-4): 86.3 µM (inactive)
GI50 (HCT-116): 10 µM (inactive)
GI50 (KM-20L2): > 100 µM (inactive)
GI50 (DMS-273): > 100 µM (inactive)
GI50 (OVCAR-3): > 100 µM (inactive)
GI50 (Malme-3M): > 100 µM (inactive)
GI50 (TK-10): > 100 µM (inactive)
GI50 (SF-539): > 100 µM (inactive)
GI50 (SK-MEL-28): > 100 µM (inactive)
GI50 (M14): > 100 µM (inactive)
GI50 (HOP-92): > 100 µM (inactive)
GI50 (ACHN): > 100 µM (inactive)
GI50 (A498): > 100 µM (inactive)
GI50 (SNB-78): > 100 µM (inactive)
GI50 (SN12C): > 100 µM (inactive)
GI50 (COLO 205): > 100 µM (inactive)
GI50 (UO-31): > 100 µM (inactive)
GI50 (MOLT-4): > 100 µM (inactive)
GI50 (IGROV-1): > 100 µM (inactive)
GI50 (SNB-19): > 100 µM (inactive)
GI50 (OVCAR-8): > 100 µM (inactive)
GI50 (HCC 2998): > 100 µM (inactive)
GI50 (NCI-H226): > 100 µM (inactive)
GI50 (SF-295): > 100 µM (inactive)
GI50 (EKVX): > 100 µM (inactive)
GI50 (HOP-18): > 100 µM (inactive)
GI50 (HCT-15): 18.6 µM
GI50 (DMS-114): 69.7 µM (inactive)
GI50 (UACC-257): > 100 µM (inactive)
GI50 (LOX IMVI): 18.3 µM (inactive)
GI50 (SNB-75): > 100 µM (inactive)
GI50 (SW-620): 19.4 µM (inactive)
GI50 (RXF 631): > 100 µM (inactive)
GI50 (HOP-62): > 100 µM (inactive)
GI50 (SK-MEL-2): > 100 µM (inactive)
GI50 (CCRF-CEM): 87.1 µM (inactive)
GI50 (SK-MEL-5): > 100 µM (inactive)
GI50 (NCI-H460): > 100 µM (inactive)
GI50 (M19-MEL): 49.8 µM (inactive)
GI50 (LXFL 529): > 100 µM (inactive)
GI50 (KM12): > 100 µM (inactive)
